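These data come from cells grown in 96-well plates and exposed to compound for 48 hours at five concentrations. GI50 is the concentration that inhibits growth by half. TGI: total growth inhibition.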
Experiments:
Assay in all cases: DTP human tumour cell line panel, 48 h
786-0 renal = tested on: 786-0 renal
A498 renal = tested on: A498 renal
CCRF-CEM leukemia = tested on: CCRF-CEM leukemia
HCT-15 colon = tested on: HCT-15 colon
KM12 colon = tested on: KM12 colon
OVCAR-8 ovarian = tested on: OVCAR-8 ovarian
SK-MEL-28 melanoma = tested on: SK-MEL-28 melanoma
SK-OV-3 ovarian = tested on: SK-OV-3 ovarian
DU-145 prostate = tested on: DU-145 prostate
MDA-MB-231 breast = tested on: MDA-MB-231 breast

Row | Compound | TGI (786-0 renal) | TGI (A498 renal) | TGI (CCRF-CEM leukemia) | TGI (HCT-15 colon) | TGI (KM12 colon) | TGI (OVCAR-8 ovarian) | TGI (SK-MEL-28 melanoma) | TGI (SK-OV-3 ovarian) | TGI (DU-145 prostate) | GI50 (786-0 renal) | GI50 (A498 renal) | GI50 (CCRF-CEM leukemia) | GI50 (DU-145 prostate) | GI50 (HCT-15 colon) | GI50 (KM12 colon) | GI50 (OVCAR-8 ovarian) | GI50 (SK-MEL-28 melanoma) | GI50 (SK-OV-3 ovarian) | GI50 (MDA-MB-231 breast) | TGI (MDA-MB-231 breast)
1 | CC(=O)Nc1ccc(/C=c2\sc3nnc(-c4cccnc4)n3c2=O)cc1 | 31.4 µM | > 100 µM | 53.9 µM | 35.9 µM | 31 µM | 32.1 µM | 33 µM | 66 µM | – | – | – | – | – | – | – | – | – | – | – | –
2 | CC1=C2C=CC(=O)C[C@@]2(C)CCC1 | > 100 µM | > 100 µM | > 100 µM | > 100 µM | > 100 µM | > 100 µM | > 100 µM | > 100 µM | – | – | – | – | – | – | – | – | – | – | – | –
3 | COc1ccc(/C=C/c2ccnc3ccccc23)cc1OC | > 100 µM | 23.6 µM | 31 µM | 30.4 µM | 30.8 µM | – | 31.7 µM | 92.8 µM | 26.6 µM | – | – | – | – | – | – | – | – | – | – | –
4 | O=C1[C@@H]2C(c3ccccc3[N+](=O)[O-])=NO[C@@H]2C(=O)N1c1ccc(Cc2ccc(N3C(=O)[C@H]4C(c5ccccc5[N+](=O)[O-])=NO[C@H]4C3=O)cc2)cc1 | > 100 µM | > 100 µM | > 100 µM | > 100 µM | > 100 µM | > 100 µM | > 100 µM | – | – | – | – | – | – | – | – | – | – | – | – | –
5 | Cc1[nH]c2cc([N+](=O)[O-])ccc2c1[N+](=O)[O-] | > 100 µM | 50.4 µM | 64.6 µM | – | 67.6 µM | 79.8 µM | 77.8 µM | – | – | – | – | – | – | – | – | – | – | – | – | –
6 | CC1(C)C(=O)/C=C\C(=O)C(C)(C)C(=O)/C=C\C(=O)C(C)(C)C2=CC=C(O2)C(C)(C)C(=O)/C=C\C1=O | 12.7 µM | 30.9 µM | – | 7.69 µM | 19.8 µM | 11.6 µM | 10 µM | 22.9 µM | 32.1 µM | – | – | – | – | – | – | – | – | – | – | –
7 | O=C(N/C(=C\c1ccc(/C=C(\NC(=O)c2ccccc2)c2nc3c(O)nc(S)nc3[nH]2)cc1)c1nc2c(O)nc(S)nc2[nH]1)c1ccccc1 | > 100 µM | > 100 µM | > 100 µM | > 100 µM | > 100 µM | > 100 µM | > 100 µM | > 100 µM | – | – | – | – | – | – | – | – | – | – | – | –
8 | Fc1ccc(Nc2nc(Nc3ccc(-c4nc5ccccc5[nH]4)cc3)c3cn[nH]c3n2)cc1 | 3.11 µM | 27.7 µM | 6.9 µM | 4.78 µM | 3.48 µM | 5.37 µM | 3.78 µM | 17.5 µM | 3.75 µM | 1.63 µM | 14.6 µM | 2.63 µM | 1.87 µM | 1.76 µM | 1.64 µM | 2.37 µM | 1.88 µM | 5.03 µM | – | –
9 | Clc1ccc(-c2nc(NCc3ccco3)c3ccccc3n2)c(Cl)c1 | 56.1 µM | 41 µM | > 100 µM | 42.7 µM | 27.3 µM | 82.7 µM | > 100 µM | > 100 µM | 29.6 µM | 20 µM | 22 µM | 10.5 µM | 8.38 µM | 13.1 µM | 10.2 µM | 24.2 µM | 24.5 µM | 18.6 µM | – | –
10 | S=C(SSC(=S)N1CCCCC1)N1CCCCC1 | 28.9 µM | – | 58.3 µM | 66.8 µM | 29 µM | 60.9 µM | 69.3 µM | > 100 µM | > 100 µM | 14.5 µM | – | 8.18 µM | 15.5 µM | 16.5 µM | 13.9 µM | 16.2 µM | 18.9 µM | 48.4 µM | 15.2 µM | 41.2 µM
11 | COc1ccc2nc3ccccc3c(NCCCCN(CCCl)CCCl)c2c1 | 1.64 µM | 4.21 µM | – | > 43 µM | 3.48 µM | 0.625 µM | 8.02 µM | – | – | – | – | – | – | – | – | – | – | – | – | 16.7 µM
12 | COC(=O)[C@@]12C3=NO[C@]1(C(=O)OC)C(O[Si](C)(C)C(C)(C)C)[C@@H](OC(C)=O)[C@@H](OC(C)=O)[C@@H]2[C@@H](OCc1ccccc1)CC3 (stereo partly drawn) | > 100 µM | > 100 µM | > 100 µM | > 100 µM | > 100 µM | > 100 µM | > 100 µM | > 100 µM | – | – | – | – | – | – | – | – | – | – | – | –
13 | COc1ccc2c(c1)[n+]([O-])c(-c1ccccc1Cl)c(N)[n+]2[O-] | > 100 µM | > 100 µM | – | > 100 µM | > 100 µM | > 100 µM | > 100 µM | > 100 µM | – | – | – | – | – | – | – | – | – | – | – | –
14 | CC(=O)[CH-]C(=O)c1ccccc1.CC(=O)[CH-]C(=O)c1ccccc1.CC(=O)[CH-]C(=O)c1ccccc1.[Ga+3] | 37.1 µM | 45.6 µM | 35.7 µM | > 100 µM | 31.1 µM | 29.2 µM | 30.9 µM | 38.2 µM | – | 18.2 µM | 24.7 µM | 4.39 µM | – | 18.2 µM | 16.8 µM | 14.8 µM | 16.5 µM | 20.1 µM | – | –
15 | COC1/C(=C\C(C)=O)c2ccccc2N1C(C)=O (stereo not drawn) | > 100 µM | > 100 µM | > 100 µM | > 100 µM | > 100 µM | > 100 µM | > 100 µM | > 100 µM | – | – | – | – | – | – | – | – | – | – | – | –
16 | CCN(CC)C(=S)SS(C)(=O)=O | 33.3 µM | – | – | 26.2 µM | 31.7 µM | 39.4 µM | – | > 100 µM | – | – | – | – | – | – | – | – | – | – | – | –
17 | COC(=O)c1cc2cc(/C=C3/SC(=S)N(N(C(C)=O)C(C)=O)C3=O)oc2n1Cc1ccccc1 | 38.6 µM | – | > 100 µM | 52.1 µM | > 100 µM | 42.8 µM | > 100 µM | 89.9 µM | 73.4 µM | 21.1 µM | – | 32.3 µM | 20.7 µM | 15 µM | 27.8 µM | 18.3 µM | 38.4 µM | 37.4 µM | 20.6 µM | 50.4 µM
18 | CCN(CC)c1c(C)nnn1C1OC(COC(C)=O)C(OC(C)=O)C(OC(C)=O)C1OC(C)=O (stereo not drawn) | > 100 µM | > 100 µM | > 100 µM | > 100 µM | > 100 µM | > 100 µM | > 100 µM | > 100 µM | – | – | – | – | – | – | – | – | – | – | – | –
19 | CCN(CC)c1ccc(C2N3CCCCC3[C@@H]3c4[nH]c5ccccc5c4CCN23)cc1 (stereo partly drawn) | > 100 µM | 28.2 µM | 63.9 µM | > 100 µM | – | > 100 µM | 58 µM | > 100 µM | – | – | – | – | – | – | – | – | – | – | – | –
20 | NC(=O)c1ncn(C2OC(CO)C(O)C2O)c1O (stereo not drawn) | > 100 µM | > 100 µM | > 100 µM | > 100 µM | > 100 µM | > 100 µM | > 100 µM | – | – | – | – | – | – | – | – | – | – | – | – | –

Reference: PubChem BioAssay (NCI)
